# Read-outs that look alike come from different tables or passages of the source.
# Experiments:
# Thermodynamic solubility = type: physicochemical; settings: for solubility thermodynamic at 24 h: 37 °C, thermodynamic from solid
# Description: In a 8 mL glass vial, 1-2 mg of dry matter of compound were added and stirred with the suitable buffers (Fed State Simulated Intestine Fluid, FeSSIF, or Fasted State Simulated Intestine Fluid, FaSSIF, or Fasted State Simulated Gastric Fluid, FaSSGF, or phosphate buffer pH 7.4) for 24 h at r.t. (for the buffer pH 7.4) or 37° C. (for the GI fluids). The concentration of the mixture was 1 mg/mL.
# A volume of 1000 μL were sampled, centrifuged for 10 min at 10 000 rpm and 500 μL of the supernatant were filtered on captiva plate. The samples are diluted in duplicates in DMSO (F100 and F10). Then, a final dilution (F100) in 80/20 H2O/MeCN containing the internal standard (warfarin) was used for LCMS-MS analysis.
# A standard curve was made starting from a 40,000 ng/mL stock in DMSO, freshly prepared from dry matter. Then, successive concentrations at 15,000, 11,000, 6,000, 2,500, 1,000, 375, 150 and 75 ng/mL in DMSO were prepared.
# Three quality control samples were made: one of 10,000, 1,500 and 200 ng/mL in DMSO, also starting from the DMSO working stock solution at 40,000 ng/mL.
# The standard curve and quality controls were diluted a F100 in 80/20 H2O/MeCN (with internal standard) and analyzed on LC/MS-MS (API4000 or API5500).
# The samples were analyzed on LC-MS with a flow rate of 0.6 mL/min. The mobile phase A was 0.1% formic acid in water and the mobile phase B was 0.1% formic acid in 90% MeCN and 10% of water. The sample was run under positive or negative ion spray on Pursuit C18—5 μm (2.0×20 mm) column, from Agilent.
# The ratio analyte/internal standard peaks areas of the standard curve were plotted in a graph and a linear or polynomial of the second order equation was used to calculate the unknown concentrations of the test compound.
# Solubility values were reported in μM and g/mL.
# [1] = tested on: CL097 triggered IFNα release in human whole blood; test: Ex vivo human IFNα release inhibition (whole blood assay); type: cell-based; settings: CL097 2 μg/mL, 3 h 30 min
# Excerpt: The aim of the assay is to evaluate the activity of compounds of the invention on the activated TLR/IRAK-4 pathway in an ex vivo human whole blood setting. Toll-like receptors (TLRs) are pattern recognition receptors that recognize a wide variety of microbial molecules, called pathogen-associated molecular patterns (PAMPs). Human TLR7 and TLR8 recognize imidazoquinoline compounds (e.g., CL097—CAS n #1026249-18-2) and single stranded RNAs as their natural ligands. Activation of TLRs leads to the production of several cytokines (e.g., IFNα, TNFα, IL-8, IL-6) by the TLR agonist-treated cells, whereas IRAK4 leads to the production of IFNα. Cytokine release is used as readout in this assay and represents a measure for the level of inhibition of the TLR/IRAK-4 pathway by the tested compound. It should be noted that in the context of the complete organism, other sources for these cytokines exist that are not dependent on the TLR/IRAK-4 pathway, such as e.g., macrophages (upon activation of the Fcγ receptor (Yan et al. 2012)) or T cells (upon activation of the T cell receptor (Brehm, Daniels, and Welsh 2005)).
# Blood is collected from healthy volunteers into lithium heparin tubes by venipuncture, then gently inverted several times to prevent clotting and incubated for at least 15 min at 37° C. on a rocking mixer shaker. Then, 100 μL of blood is dispensed into polypropylene 96-well microplate and pre-incubated in duplicate with 0.3% DMSO or test compound at different concentrations (from 30 to 0.01 μM, 3-fold dilutions to get 0.3% DMSO at the final) for 15 min at 37° C. After this pre-incubation, blood is triggered with CL097 (2 μg/mL from 1 mg/mL solution in water; InvivoGen, tlr1-c97) for 3 h 30 min at 37° C. Microtubes are centrifuged at 5000×g for 10 min at 4° C. and approximately 40 μL of plasma are collected into a polystyrene 96-well plate. Plasma can be analyzed freshly, within 30 min after triggering, or frozen at −80° C. Finally, the quantification of IFNα and IFNα were performed in the plasma using AlphaLISA Kit for […] according to the manufacturer's instructions and read on the Ensight (PerkinElmer).
# A standard curve was created by plotting on log-log the mean absorbance on the y-axis against the concentration on the x-axis and a 4PL was made through the points. For each blood sample, the IFNα concentrations of the samples were determined from the fit.
# Data were then expressed as a percentage of inhibition (PIN) for each replicate using the formula:
# With mean IFNα with CL097=mean IFNα concentration of replicate samples triggered with CL097; IFNαsample1=IFNα concentration of sample 1; mean IFNα with vehicle=mean IFNα concentration of replicate samples treated with vehicle.
# Curve fitting for pIC50 determination were generated using mean PIN±sem. Graphs and pIC50 calculations were derived using Prism 5.03 software (GraphPad).
# Human Hepatocyte = test: Metabolic stability in human hepatocytes; type: in vitro ADME; settings: human cryopreserved hepatocytes, 1 μM
# Description: (§1) The aim of this assay is to determine the metabolic stability of the compound in hepatocytes (cryopreserved) of different species. Low hepatocyte stability may result in the formation of unwanted metabolites, high clearance, and therefore is not desirable.
# (§2) A 10 mM stock solution of test compound in DMSO was first diluted in DMSO to 3 mM, and then in modified Krebs-Henseleit buffer (Sigma, K3753) to 5 μM. This compound dilution was added to a suspension of pooled cryopreserved hepatocytes (BioreclamationIVT) at 37° C. under gentle shaking.
# (§3) Final reaction conditions were: 1 μM of test compound, 0.03% DMSO, 0.5 million viable hepatocytes/mL, and 75 μL incubation volume.
# (§4) Testosterone (1 μM) and 7-hydroxycoumarin (1 μM) were used, respectively as phase I and phase II metabolic reaction controls.
# (§5) After 0, 10, 20, 45, 90, 120 and 180 min of incubation, the reaction was terminated with 225 μL of MeCN:MeOH (2:1) containing 100 ng/mL of diclofenac as analytical internal standard. Samples were mixed, centrifuged and the supernatant analyzed by LC-MS/MS.
# (§6) The instrument responses (ratios of test compound and internal standard peak areas) were referenced to the zero time point samples (considered as 100%) in order to determine the percentage of compound remaining.
# (§7) Plots of percentage compound remaining were used to determine the intrinsic clearance in the hepatocyte incubations using the following equations:
# (§8) Scaled Clint [L/h/kg]=Clint [μL/min/10^6 cells]*#(10) cells/g liver*60*(1/10^6) Scaled Clint unbound [L/h/kg]=Clint [L/h/kg]/Fu,inc where: fu,inc equals hepatocyte binding, derived from microsomal binding (fu,mic) by following equation: […]
# Mouse Hepatocyte = test: Metabolic stability in mouse hepatocytes; type: in vitro ADME; settings: mouse cryopreserved hepatocytes, 1 μM
# Description: as §1, §2, §3, §4, §5, §6, §7, §8
# [2] = Fasted State Simulated Intestine Fluid, 24 h, 37° C.
# [3] = Fasted State Simulated Gastric Fluid (FaSSGF), fassgf or other biorelevant, Fasted State Simulated Gastric Fluid, read-out: Tsol FaSSGF
# [4] = Fasted State Simulated Intestine Fluid (FaSSIF), fassif, Fasted State Simulated Intestine Fluid, read-out: Tsol FaSSIF
# [5] = Fed State Simulated Intestine Fluid (FeSSIF), fessif, Fed State Simulated Intestine Fluid, read-out: Tsol FeSSIF
SMILES,Tsol FaSSIF (Thermodynamic solubility; [2]),IC50 [1] [nM],"Tsol FaSSGF (Thermodynamic solubility; Fasted State Simulated Gastric Fluid, 24 h, 37° C.) [µg/mL]","Tsol FeSSIF (Thermodynamic solubility; Fed State Simulated Intestine Fluid, 24 h, 37° C.) [µg/mL]",Human Hepatocyte stability (Perc. remaining at 90 min) (Human Hepatocyte) [Perc.],Mouse Hepatocyte stability (Perc. remaining at 90 min) (Mouse Hepatocyte) [Perc.],solubility thermodynamic at 24 h (Thermodynamic solubility; [3]) [µg/mL],solubility thermodynamic at 24 h (Thermodynamic solubility; [4]) [µg/mL],solubility thermodynamic at 24 h (Thermodynamic solubility; [5]) [µg/mL]
"NC(=O)c1cc2nc(C3COCCO3)cn2cc1NC(=O)c1cccc(C(F)(F)F)n1 (centres unmarked) [Compound 6, 2-(1,4-dioxan-2-yl)-6-[[6-(trifluoromethyl)pyridine-2-carbonyl]amino]imidazo[1,2-a]pyridine-7-carboxamide]","2.30, 2.30 μg/mL",1000 to 5000,,,,,,,
"COc1cc2nc(C3COCCO3)cn2cc1NC(=O)c1cccn(C2CC2)c1=O (single isomer, unassigned) [Compound 7, 1-cyclopropyl-N-[2-(1,4-dioxan-2-yl)-7-methoxy-imidazo[1,2-a]pyridin-6-yl]-2-oxo-pyridine-3-carboxamide]",31.6 µg/mL,0.1 to 500,958,117,,,,,
"CC(F)(F)c1cccc(C(=O)Nc2cn3cc(C4COCCO4)nc3cc2C(N)=O)n1 (centres unmarked) [Compound 11, 6-(6-(1,1-difluoroethyl)picolinamido)-2-(1,4-dioxan-2-yl)imidazo[1,2-a]pyridine-7-carboxamide]",,500 to 1000,,,99.15,80.6,335,12.2,
"COc1cc2nc(C3COCCO3)cn2cc1NC(=O)c1cccn(C2CCC2)c1=O (centres unmarked) [Compound 5, 1-cyclobutyl-N-[2-(1,4-dioxan-2-yl)-7-methoxy-imidazo[1,2-a]pyridin-6-yl]-2-oxo-pyridine-3-carboxamide]",,1000 to 5000,,,,,,43.9,
"COc1cc2nc(C3CCS(=O)(=O)CC3)cn2cc1NC(=O)c1cccn(C2CC2)c1=O [Compound 23, 1-cyclopropyl-N-(2-(1,1-dioxidotetrahydro-2H-thiopyran-4-yl)-7-methoxyimidazo[1,2-a]pyridin-6-yl)-2-oxo-1,2-dihydropyridine-3-carboxamide]",,0.1 to 500,,,,,,,270
"COc1cc2nc(C3CCOCC3)cn2cc1NC(=O)c1cccn(C2CC2)c1=O [Compound 3, (1-cyclopropyl-N-[7-methoxy-2-(oxan-4-yl)imidazo[1,2-a]pyridin-6-yl]-2-oxopyridine-3-carboxamide)]",,500 to 1000,,,,,947,1010,
"COc1cc2nc(C3CCOCC3)cn2cc1NC(=O)c1cccc(C(F)(F)F)n1 [Compound 2, N-(7-methoxy-2-tetrahydropyran-4-yl-imidazo[1,2-a]pyridin-6-yl)-6-(trifluoromethyl)pyridine-2-carboxamide]",,> 5000,,,,,1020,19.3,
"CNC(=O)c1cc2nc(C3COCCO3)cn2cc1NC(=O)c1cccc(C(F)(F)F)n1 (centres unmarked) [Compound 9, 2-(1,4-dioxan-2-yl)-N-methyl-6-(6-(trifluoromethyl)picolinamido)imidazo[1,2-a]pyridine-7-carboxamide]",,1000 to 5000,,,92.1,73.3,,6.42,
"COc1cc2nc(C3COCCO3)cn2cc1NC(=O)c1cccn(C2CC2)c1=O (single isomer, unassigned) [Compound 8, 1-cyclopropyl-N-[2-(1,4-dioxan-2-yl)-7-methoxy-imidazo[1,2-a]pyridin-6-yl]-2-oxo-pyridine-3-carboxamide]",67.4 µg/mL,0.1 to 500,,,,,1000,,208
"COc1cc2nc(C3COCCO3)cn2cc1NC(=O)c1cccn(C2CC2)c1=O (racemic) [Compound 1, 1-cyclopropyl-N-[2-(1,4-dioxan-2-yl)-7-methoxy-imidazo[1,2-a]pyridin-6-yl]-2-oxo-pyridine-3-carboxamide]",,0.1 to 500,,,101.5,103.95,> 1000,28.2,> 1000

# Reference: patent US20220296573A1, “NOVEL COMPOUNDS AND PHARMACEUTICAL COMPOSITIONS THEREOF FOR THE TREATMENT OF INFLAMMATORY DISORDERS” (Galapagos NV, priority 2019, published 2022)
